Measurements taken from PubChem BioAssay (NCI).
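Each compound was tested at five concentrations against cells in 96-well plates for 48 hours. GI50 = concentration required for 50% inhibition of growth. TGI: total growth inhibition.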

Tests used:
Assay in all cases: DTP human tumour cell line panel, 48 h
SK-MEL-5 melanoma = system: SK-MEL-5 melanoma
SK-MEL-2 melanoma = system: SK-MEL-2 melanoma
HOP-62 NSCLC = system: HOP-62 NSCLC
OVCAR-5 ovarian = system: OVCAR-5 ovarian
PC-3 prostate = system: PC-3 prostate
IGROV1 ovarian = system: IGROV1 ovarian
ACHN renal = system: ACHN renal
KM12 colon = system: KM12 colon
HS 578T breast = system: HS 578T breast
M14 melanoma = system: M14 melanoma
HL-60(TB) leukemia = system: HL-60(TB) leukemia
DU-145 prostate = system: DU-145 prostate
RPMI-8226 leukemia = system: RPMI-8226 leukemia
NCI-H23 lung = system: NCI-H23 lung
COLO 205 colon = system: COLO 205 colon
MOLT-4 leukemia = system: MOLT-4 leukemia
A498 renal = system: A498 renal
K-562 leukemia = system: K-562 leukemia
HOP-92 NSCLC = system: HOP-92 NSCLC
SF-268 CNS = system: SF-268 CNS
MCF7 breast = system: MCF7 breast
TK-10 renal = system: TK-10 renal
HCT-116 colon = system: HCT-116 colon
NCI/ADR-RES ovarian = system: NCI/ADR-RES ovarian
CAKI-1 renal = system: CAKI-1 renal
SF-295 CNS = system: SF-295 CNS
786-0 renal = system: 786-0 renal
SW-620 colon = system: SW-620 colon
HCC-2998 colon = system: HCC-2998 colon
NCI-H226 lung = system: NCI-H226 lung
UACC-257 melanoma = system: UACC-257 melanoma
SF-539 CNS = system: SF-539 CNS
NCI-H460 lung = system: NCI-H460 lung
A549 NSCLC = system: A549 NSCLC
OVCAR-4 ovarian = system: OVCAR-4 ovarian
UO-31 renal = system: UO-31 renal
NCI-H522 lung = system: NCI-H522 lung
T-47D breast = system: T-47D breast
MDA-MB-231 breast = system: MDA-MB-231 breast
OVCAR-3 ovarian = system: OVCAR-3 ovarian
HCT-15 colon = system: HCT-15 colon
RXF 393 renal = system: RXF 393 renal
MALME-3M melanoma = system: MALME-3M melanoma
EKVX NSCLC = system: EKVX NSCLC
SR leukemia = system: SR leukemia
SNB-75 CNS = system: SNB-75 CNS
SK-MEL-28 melanoma = system: SK-MEL-28 melanoma
MDA-MB-435 = system: MDA-MB-435
BT-549 breast = system: BT-549 breast
SN12C renal = system: SN12C renal
SK-OV-3 ovarian = system: SK-OV-3 ovarian
U251 CNS = system: U251 CNS
UACC-62 melanoma = system: UACC-62 melanoma
OVCAR-8 ovarian = system: OVCAR-8 ovarian
SNB-19 CNS = system: SNB-19 CNS
HT29 colon = system: HT29 colon

C#Cc1cc(OC)c(C(=O)Nc2ccc(F)cc2C(=O)Nc2cccc(S(=O)(=O)C(F)(F)F)c2)cn1
GI50 (SK-MEL-5 melanoma): 1240 nM
TGI (SK-MEL-5 melanoma): 2880 nM
GI50 (SK-MEL-2 melanoma): 2870 nM
TGI (SK-MEL-2 melanoma): 10600 nM
GI50 (HOP-62 NSCLC): 38.1 nM
TGI (HOP-62 NSCLC): 212 nM
GI50 (OVCAR-5 ovarian): 269 nM
TGI (OVCAR-5 ovarian): 1800 nM
GI50 (PC-3 prostate): 1520 nM
TGI (PC-3 prostate): 14500 nM
GI50 (IGROV1 ovarian): 20.8 nM
TGI (IGROV1 ovarian): 51.2 nM
GI50 (ACHN renal): 205 nM
TGI (ACHN renal): 1670 nM
GI50 (KM12 colon): 299 nM
TGI (KM12 colon): 1540 nM
GI50 (HS 578T breast): 525 nM
TGI (HS 578T breast): 3140 nM
GI50 (M14 melanoma): 1270 nM
TGI (M14 melanoma): > 28400 nM
GI50 (HL-60(TB) leukemia): 28.9 nM
TGI (HL-60(TB) leukemia): 84.5 nM
GI50 (DU-145 prostate): 3250 nM
TGI (DU-145 prostate): > 100000 nM
GI50 (RPMI-8226 leukemia): 174 nM
TGI (RPMI-8226 leukemia): 550 nM
GI50 (NCI-H23 lung): 101 nM
TGI (NCI-H23 lung): 559 nM
GI50 (COLO 205 colon): 1680 nM
TGI (COLO 205 colon): > 42700 nM
GI50 (MOLT-4 leukemia): 322 nM
TGI (MOLT-4 leukemia): 1350 nM
GI50 (A498 renal): 250 nM
TGI (A498 renal): 656 nM
GI50 (K-562 leukemia): 666 nM
TGI (K-562 leukemia): > 100000 nM
GI50 (HOP-92 NSCLC): 20.1 nM
TGI (HOP-92 NSCLC): 53.9 nM
GI50 (SF-268 CNS): 285 nM
TGI (SF-268 CNS): 927 nM
GI50 (MCF7 breast): 727 nM
TGI (MCF7 breast): > 100000 nM
GI50 (TK-10 renal): 5860 nM
TGI (TK-10 renal): > 100000 nM
GI50 (HCT-116 colon): 417 nM
TGI (HCT-116 colon): > 100000 nM
GI50 (NCI/ADR-RES ovarian): 52.1 nM
TGI (NCI/ADR-RES ovarian): 340 nM
GI50 (CAKI-1 renal): 149 nM
TGI (CAKI-1 renal): 884 nM
GI50 (SF-295 CNS): 176 nM
TGI (SF-295 CNS): 333 nM
GI50 (786-0 renal): 24.1 nM
TGI (786-0 renal): 63.3 nM
GI50 (SW-620 colon): 1130 nM
TGI (SW-620 colon): 3420 nM
GI50 (HCC-2998 colon): 2100 nM
TGI (HCC-2998 colon): 4640 nM
GI50 (NCI-H226 lung): 1720 nM
TGI (NCI-H226 lung): 8900 nM
GI50 (UACC-257 melanoma): 3030 nM
TGI (UACC-257 melanoma): > 83600 nM
GI50 (SF-539 CNS): 99.9 nM
TGI (SF-539 CNS): 252 nM
GI50 (NCI-H460 lung): 419 nM
TGI (NCI-H460 lung): 1690 nM
GI50 (A549 NSCLC): 1060 nM
TGI (A549 NSCLC): 5200 nM
GI50 (OVCAR-4 ovarian): 1980 nM
TGI (OVCAR-4 ovarian): > 26600 nM
GI50 (UO-31 renal): 17.5 nM
TGI (UO-31 renal): 44.9 nM
GI50 (NCI-H522 lung): 60.6 nM
TGI (NCI-H522 lung): 237 nM
GI50 (T-47D breast): 1730 nM
TGI (T-47D breast): 4300 nM
GI50 (MDA-MB-231 breast): 117 nM
TGI (MDA-MB-231 breast): 596 nM
GI50 (OVCAR-3 ovarian): 224 nM
TGI (OVCAR-3 ovarian): 576 nM
GI50 (HCT-15 colon): 629 nM
TGI (HCT-15 colon): 2680 nM
GI50 (RXF 393 renal): 337 nM
TGI (RXF 393 renal): 1190 nM
GI50 (MALME-3M melanoma): 43.3 nM
TGI (MALME-3M melanoma): 130 nM
GI50 (EKVX NSCLC): 290 nM
TGI (EKVX NSCLC): 1100 nM
GI50 (SR leukemia): 21.6 nM
TGI (SR leukemia): 68.9 nM
GI50 (SNB-75 CNS): 190 nM
TGI (SNB-75 CNS): 529 nM
GI50 (SK-MEL-28 melanoma): 2840 nM
TGI (SK-MEL-28 melanoma): > 25800 nM
GI50 (MDA-MB-435): 1750 nM
TGI (MDA-MB-435): > 23800 nM
GI50 (BT-549 breast): 500 nM
TGI (BT-549 breast): 1850 nM
GI50 (SN12C renal): 542 nM
TGI (SN12C renal): > 36700 nM
GI50 (SK-OV-3 ovarian): 205 nM
TGI (SK-OV-3 ovarian): 412 nM
GI50 (U251 CNS): 280 nM
TGI (U251 CNS): 840 nM
GI50 (UACC-62 melanoma): 778 nM
TGI (UACC-62 melanoma): 2310 nM
GI50 (OVCAR-8 ovarian): 389 nM
TGI (OVCAR-8 ovarian): 4430 nM
GI50 (SNB-19 CNS): 1590 nM
TGI (SNB-19 CNS): 3550 nM
GI50 (HT29 colon): 447 nM
TGI (HT29 colon): 2500 nM
